{"source": "patent US9216216B2", "about": "“LprG as a chaperone of immune adjuvants” (Case Western Reserve University, priority 2009, dated 2015)", "key": {"[1]": {"tested_on": "bone marrow-derived macrophages", "format": "cell-based, mice"}, "TLR2 [2]": {"target": "T1, TLR2 (Homo sapiens, UniProt O60603+Q15399)", "T1 construct": "YFP; expressed in transfected cells", "T1 sequence (O60603 21-784, species assumed)": "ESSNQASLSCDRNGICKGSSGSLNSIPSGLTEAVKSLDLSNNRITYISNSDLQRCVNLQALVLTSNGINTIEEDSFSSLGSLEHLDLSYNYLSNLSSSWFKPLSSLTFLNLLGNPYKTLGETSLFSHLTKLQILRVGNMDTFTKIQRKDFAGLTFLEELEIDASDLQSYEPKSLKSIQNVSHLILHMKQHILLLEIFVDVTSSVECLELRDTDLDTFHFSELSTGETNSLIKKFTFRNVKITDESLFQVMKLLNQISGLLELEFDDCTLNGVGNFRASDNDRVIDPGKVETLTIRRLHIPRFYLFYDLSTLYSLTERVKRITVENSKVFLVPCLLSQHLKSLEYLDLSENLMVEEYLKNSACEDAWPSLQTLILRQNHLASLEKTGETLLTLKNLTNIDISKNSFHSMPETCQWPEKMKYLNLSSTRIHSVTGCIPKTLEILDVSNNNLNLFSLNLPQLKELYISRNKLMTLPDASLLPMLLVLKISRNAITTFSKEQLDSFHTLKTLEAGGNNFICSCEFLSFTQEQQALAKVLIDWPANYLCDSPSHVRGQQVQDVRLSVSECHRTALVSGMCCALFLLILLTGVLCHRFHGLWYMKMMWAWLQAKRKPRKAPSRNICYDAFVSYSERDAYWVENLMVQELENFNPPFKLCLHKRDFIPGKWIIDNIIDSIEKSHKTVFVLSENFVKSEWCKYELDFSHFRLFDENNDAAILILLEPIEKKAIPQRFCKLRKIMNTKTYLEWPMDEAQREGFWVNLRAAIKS", "T1 sequence (Q15399 25-786, species assumed)": "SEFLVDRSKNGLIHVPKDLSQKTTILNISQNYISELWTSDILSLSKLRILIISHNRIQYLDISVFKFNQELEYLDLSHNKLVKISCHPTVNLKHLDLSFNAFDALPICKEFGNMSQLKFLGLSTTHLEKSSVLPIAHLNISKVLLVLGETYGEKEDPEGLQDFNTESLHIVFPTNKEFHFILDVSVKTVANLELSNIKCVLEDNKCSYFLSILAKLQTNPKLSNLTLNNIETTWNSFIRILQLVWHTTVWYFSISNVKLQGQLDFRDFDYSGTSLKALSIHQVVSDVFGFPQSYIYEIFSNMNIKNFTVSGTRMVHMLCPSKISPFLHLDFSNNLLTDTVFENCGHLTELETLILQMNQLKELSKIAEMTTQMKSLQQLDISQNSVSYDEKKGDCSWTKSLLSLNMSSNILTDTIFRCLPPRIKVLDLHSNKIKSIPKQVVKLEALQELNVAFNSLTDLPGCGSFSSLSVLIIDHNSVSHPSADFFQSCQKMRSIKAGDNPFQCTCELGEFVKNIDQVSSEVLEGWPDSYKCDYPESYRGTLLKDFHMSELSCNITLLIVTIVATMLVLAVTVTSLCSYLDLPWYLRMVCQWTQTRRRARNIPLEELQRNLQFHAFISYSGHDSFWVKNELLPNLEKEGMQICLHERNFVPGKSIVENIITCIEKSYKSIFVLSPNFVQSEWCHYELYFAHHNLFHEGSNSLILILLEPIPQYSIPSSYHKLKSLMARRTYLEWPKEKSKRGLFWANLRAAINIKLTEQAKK", "format": "cell-based"}, "TLR2 [3]": {"target": "T1, TLR2", "format": "cell-based", "remark": "listed apart in the source"}}, "note": "“Also recorded” adds a separate entry of the source."}
{"molecule": "FSL-1", "values": [{"measurement": "TLR dependence of macrophage TNFα response", "setting": "[1]", "result": "dependent on TLR2 and TLR6, but not TLR1"}]}
{"molecule": "CpG ODN 1826", "values": [{"measurement": "TLR dependence of macrophage TNFα response", "setting": "[1]", "result": "intact in knockout cell lines; also recorded: All macrophage types responded"}]}
{"molecule": "Acylated LprG-V91W: acylated LprG with the V91W mutation of the putative glycolipid binding site (protein, UniProt P9WK45 27-236, looked up, variant V91W) Lipoarabinomannan carrier …: CSSGSKPSGGPLPDAKPLVEEATAQTKALKSAHMVLTVNGKIPGLSLKTLSGDLTTNPTAATGNWKLTLGGSDIDADFVVFDGILYATLTPNQWSDFGPAADIYDPAQVLNPDTGLANVLANFADAKAEGRDTINGQNTIRISGKVSAQAVNQIAPPFNATQPVPATVWIQETGDHQLAQAQLDRGSGNSVQMTLSKWGEKVQVTKPPVS", "values": [{"measurement": "TLR2 agonist activity of acylated protein", "setting": "TLR2 [2]", "result": "significantly less potent than wild-type acylated LprG"}]}
{"molecule": "LprG: Mtb lipoprotein LprG (SEQ ID NO: 2), recombinant 6×His-tagged acylated form (protein, listed as Mycobacterium smegmatis, 6xHis tag; acylated) MLGMQTRRRLSAVFASLTLATALIAGCSSGSKQSGAPLPDPTSLVKQSADATKNVKSVHLVLSIQGKISGLPIKTLTGDLTTTPATAAKGNATITLGGSDIDANFVVVDGTLYATLTPNKWSDFGKASDIYDVSVLLNPDNGLGNALANFSNAKAEGRETINGQSTIRISGNVSADAVNKIMPQFNATQPVPSTVWVQETGDHQLVQANLQKSSGNSVQVTLSNWGEQVQVTKPPVSS", "values": [{"measurement": "TLR2 agonist activity (IL-8 response)", "setting": "TLR2 [3]", "result": "dose-dependent IL-8 response; also recorded: more potent TLR2 agonist than a homologous Mtb lipoprotein, LprA"}]}
